Tested on: HT29 cells
Assay: Inhibition of cell necrosis (CCK8 method), induced programmed necrosis of HT29 cells
Format: cell-based
Conditions: Homo sapiens, HT-29; rescue from necrosis induced by TNF-α 20 ng/mL, AT-406 1 μM, Z-VAD-FMK 20 μM; 16-20 hours; CCK-8, OD 450 nm
Procedure, shortened: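 Rescue from programmed necrosis was scored by CCK-8 absorbance at 450 nm after 16-20 h of TNF-α (20 ng/mL), AT-406 (1 μM) and Z-VAD-FMK (20 μM) at 37 °C, 5% CO2. HT29 cells had received compound 30 min earlier across nine 4-fold dilutions (top 25000 nM final). IC50 came from % inhibition relative to uninduced and induced-only wells.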

| SMILES | IC50 [nM] |
| --- | --- |
| Cc1c(F)cc(OCCCC(C)(C)O)cc1-c1ccnc(NC(=O)c2nnc(Cc3ccccc3)[nH]2)c1 [Example 235, 5-benzyl-N-(4-(3-fluoro-5-((4-hydroxy-4-methylpentyl)oxy)-2-methylphenyl)pyridin-2-yl)-4H-1,2,4-triazole-3-carboxamide] | ≤ 100 |
| O=C(Nc1cc(-c2ccccc2)ccn1)c1nnc(Cc2ccccc2)[nH]1 [Example 1, 5-benzyl-N-(4-phenylpyridin-2-yl)-4H-1,2,4-triazole-3-carboxamide] | 1000 to 10000 |
| Cc1ccc(CCCO)cc1-c1ccnc(NC(=O)c2nnc(Cc3ccccc3)[nH]2)c1 [Example 483, 5-benzyl-N-(4-(5-(3-hydroxylpropyl)-2-methylphenyl)pyridin-2-yl)-4H-1,2,4-triazole-3-carboxamide] | 100 to 1000 |
| CC(C)(O)CCCOc1ccc(Cl)c(-c2ccnc(NC(=O)c3nnc(Cc4ccccc4)[nH]3)c2)c1 [Example 337, 5-benzyl-N-(4-(5-((4-hydroxy-4-methylpentyl)oxy)-2-chlorophenyl)pyridin-2-yl)-4H-1,2,4-triazole-3-carboxamide] | ≤ 100 |
| COc1ccc(Cl)c(-c2cncc(NC(=O)c3nnc(Cc4ccccc4)[nH]3)c2)c1 [Example 31, 5-benzyl-N-(5-(2-chloro-5-methoxyphenyl)pyridin-3-yl)-4H-1,2,4-triazole-3-carboxamide] | > 10000 |
| O=C(Nc1cc(-c2ccccc2OC(F)(F)F)ccn1)c1nnc(Cc2ccccc2)[nH]1 [Example 6, 5-benzyl-N-(4-(2-(trifluoromethoxy)phenyl)pyridin-2-yl)-4H-1,2,4-triazole-3-carboxamide] | 1000 to 10000 |
| CCCCCCCCOc1ccc(C)c(-c2ccnc(NC(=O)c3nnc(Cc4ccccc4)[nH]3)c2)c1 [Example 100, 5-benzyl-N-(4-(2-methyl-5-(octyloxy)phenyl)pyridin-2-yl)-4H-1,2,4-triazole-3-carboxamide] | 100 to 1000 |
| O=C(Nc1cc(-c2cc(OCC3CCOCC3)ccc2Cl)ccn1)c1nnc(Cc2ccccc2F)[nH]1 [Example 400, 5-(2-fluorobenzyl)-N-(4-(2-chloro-5-((tetrahydro-2H-pyran-4-yl)methoxy)phenyl)pyridin-2-yl)-4H-1,2,4-triazole-3-carboxamide] | ≤ 100 |
| Cc1ccc(OCCCC(C)(C)O)cc1-c1ccnc(NC(=O)c2nnc(CC3CCCC3)o2)c1 [Example 174, 5-(cyclopentylmethyl)-N-(4-(5-((4-hydroxy-4-methylpentyl)oxy)-2-methylphenyl)pyridin-2-yl)-4H-1,3,4-oxadiazole-2-carboxamide] | 100 to 1000 |
| COCCOc1ccc(Cl)c(-c2ccnc(NC(=O)c3nnc(Cc4ccccc4)[nH]3)c2)c1 [Example 379, 5-benzyl-N-(4-(2-chloro-5-(2-methoxyethoxy)phenyl)pyridin-2-yl)-4H-1,2,4-triazole-3-carboxamide] | 100 to 1000 |
| COc1ccc(C)c(-c2ccnc(NC(=O)c3nnc(Cc4ccccc4)[nH]3)c2)c1 [Example 101, 5-benzyl-N-(4-(5-methoxy-2-methylphenyl)pyridin-2-yl)-4H-1,2,4-triazole-3-carboxamide] | 100 to 1000 |
| Cc1ccc(NC(=O)CCC(C)(C)O)cc1-c1ccnc(NC(=O)c2nnc(Cc3ccccc3)[nH]2)c1 [Example 489, 5-benzyl-N-(4-(5-(4-hydroxy-4-methylvaleramido)-2-methylphenyl)pyridin-2-yl)-4H-1,2,4-triazole-3-carboxamide] | 100 to 1000 |
| Cc1ccc(OCC(C)(C)O)cc1-c1ccnc(NC(=O)c2nnc(CC3CCCCC3)[nH]2)c1 [Example 119, 5-(cyclohexylmethyl)-N-(4-(5-(2-hydroxyl-2-methylpropoxy)-2-methylphenyl)pyridin-2-yl)-4H-1,2,4-triazole-3-carboxamide] | ≤ 100 |
| COc1ccc(C(F)(F)F)cc1-c1ccnc(NC(=O)c2nnc(Cc3ccccc3)[nH]2)c1 [Example 19, 5-benzyl-N-(4-(2-methoxy-5-(trifluoromethyl)phenyl)pyridin-2-yl)-4H-1,2,4-triazole-3-carboxamide] | 1000 to 10000 |
| Cc1ccc(OCCCC(C)(C)O)cc1-c1cc(NC(=O)c2nnc(Cc3cc(F)cc(F)c3)[nH]2)ncn1 [Example 437, 5-(3,5-difluorobenzyl)-N-(6-(5-((4-hydroxy-4-methylpentyl)oxy)-2-methylphenyl)pyrimidin-4-yl)-4H-1,2,4-triazole-3-carboxamide] | 100 to 1000 |
| COc1cccc(C)c1-c1ccnc(NC(=O)c2nnc(Cc3ccccc3)[nH]2)c1 [Example 92, 5-benzyl-N-(4-(2-methoxy-6-methylphenyl)pyridin-2-yl)-4H-1,2,4-triazole-3-carboxamide] | 100 to 1000 |
| CC(C)(O)CCCCOc1ccc(Cl)c(-c2cc(NC(=O)c3nnc(Cc4ccccc4F)[nH]3)ncc2Cl)c1 [Example 420, N-(5-chloro-4-(2-chloro-5-((5-hydroxyl-5-methylhexyl)oxy)phenyl)pyridin-2-yl)-5-(2-fluorobenzyl)-4H-1,2,4-triazole-3-carboxamide] | 100 to 1000 |

| SMILES | IC50 [nM] |
| --- | --- |
| O=C(Nc1cc(-c2cc(OCCC3CCOCC3)ccc2C(F)(F)F)ccn1)c1nnc(Cc2ccccc2)[nH]1 [Example 305, 5-benzyl-N-(4-(5-(2-(tetrahydro-2H-pyran-4-yl)ethoxy)-2-(trifluoromethyl)phenyl)pyridin-2-yl)-4H-1,2,4-triazole-3-carboxamide] | ≤ 100 |
| CC(C)(O)CCCOc1ccc(F)c(-c2ccnc(NC(=O)c3nnc(Cc4ccccc4)[nH]3)c2)c1 [Example 312, 5-benzyl-N-(4-(2-fluoro-5-((4-hydroxy-4-methylpentyl)oxy)phenyl)pyridin-2-yl)-4H-1,2,4-triazole-3-carboxamide] | 100 to 1000 |
| COc1ccc(-c2ccnc(NC(=O)c3nnc(Cc4ccccc4)[nH]3)c2)c(C)c1 [Example 10, 5-benzyl-N-(4-(4-methoxy-2-methylphenyl)pyridin-2-yl)-4H-1,2,4-triazole-3-carboxamide] | 1000 to 10000 |
| CC(C)(O)CCCOc1ccc(Cl)c(-c2cc(NC(=O)c3nnc(CC4CCCCC4)[nH]3)ncc2F)c1 [Example 410, N-(4-(2-chloro-5-((4-hydroxy-4-methylpentyl)oxy)phenyl)-5-fluoropyridin-2-yl)-5-(cyclohexylmethyl)-4H-1,2,4-triazole-3-carboxamide] | ≤ 100 |
| CC(C)(C)OCCOc1ccc(C(F)(F)F)c(-c2ccnc(NC(=O)c3nnc(Cc4ccccc4F)[nH]3)c2)c1 [Example 292, 5-(2-fluorobenzyl)-N-(4-(5-(2-(tert-butoxy)ethoxy)-2-(trifluoromethyl)phenyl)pyridin-2-yl)-4H-1,2,4-triazole-3-carboxamide] | ≤ 100 |
| Cc1cnc(NC(=O)c2nnc(CC3CCCCC3)[nH]2)cc1-c1cc(OCCCC(C)(C)O)ccc1Cl [Example 414, N-(4-(2-chloro-5-((4-hydroxy-4-methylpentyl)oxy)phenyl)-5-methylpyridin-2-yl)-5-(cyclohexylmethyl)-4H-1,2,4-triazole-3-carboxamide] | 100 to 1000 |
| CCC(O)(CC)CCCOc1ccc(Cl)c(-c2cc(NC(=O)c3nnc(Cc4ccccc4F)[nH]3)ncc2F)c1 [Example 415, N-(4-(2-chloro-5-((4-ethyl-4-hydroxyhexyl)oxy)phenyl)-5-fluoropyridin-2-yl)-5-(2-fluorobenzyl)-4H-1,2,4-triazole-3-carboxamide] | ≤ 100 |
| COCCOc1cccc(C)c1-c1ccnc(NC(=O)c2nnc(Cc3ccccc3)[nH]2)c1 [Example 94, 5-benzyl-N-(4-(2-(2-methoxyethoxy)-6-methylphenyl)pyridin-2-yl)-4H-1,2,4-triazole-3-carboxamide] | 1000 to 10000 |
| CC(C)Oc1ccc(Cl)c(-c2ccnc(NC(=O)c3nnc(Cc4ccccc4)[nH]3)c2)c1 [Example 111, 5-benzyl-N-(4-(2-chloro-5-isopropoxyphenyl)pyridin-2-yl)-4H-1,2,4-triazole-3-carboxamide] | ≤ 100 |
| CCOCCCOc1ccc(C)c(-c2ccnc(NC(=O)c3nnc(Cc4ccccc4)[nH]3)c2)c1 [Example 147, 5-benzyl-N-(4-(5-(3-ethoxypropoxy)-2-methylphenyl)pyridin-2-yl)-4H-1,2,4-triazole-3-carboxamide] | ≤ 100 |
| COc1ccc(Cl)c(-c2ccnc(NC(=O)c3nnc(Cc4ccccc4)[nH]3)c2)c1 [Example 13, 5-benzyl-N-(4-(2-chloro-5-methoxyphenyl)pyridin-2-yl)-4H-1,2,4-triazole-3-carboxamide] | 1000 to 10000 |
| Cc1ccc(NC(=O)CCC(C)(C)O)cc1-c1ccnc(NC(=O)c2nnc(CC3CCCC3)[nH]2)c1 [Example 490, 5-(cyclopentylmethyl)-N-(4-(5-(4-hydroxy-4-methylvaleramido)-2-methylphenyl)pyridin-2-yl)-4H-1,2,4-triazole-3-carboxamide] | ≤ 100 |
| O=C(Nc1cc(-c2cc(OCCC3CCOCC3)ccc2Cl)c(Cl)cn1)c1nnc(Cc2ccccc2F)[nH]1 [Example 430, N-(5-chloro-4-(2-chloro-5-(2-(tetrahydro-2H-pyran-4-yl)ethoxy)phenyl)pyridin-2-yl)-5-(2-fluorobenzyl)-4H-1,2,4-triazole-3-carboxamide] | 100 to 1000 |
| Cc1cc(F)cc(Cc2nnc(C(=O)Nc3cc(-c4cc(OCCCC(C)(C)O)ccc4C)ccn3)[nH]2)c1 [Example 207, 5-(3-fluoro-5-methylbenzyl)-N-(4-(5-((4-hydroxy-4-methylpentyl)oxy)-2-methylphenyl)pyridin-2-yl)-4H-1,2,4-triazole-3-carboxamide] | 100 to 1000 |
| COCCOc1cnc(C)c(-c2ccnc(NC(=O)c3nnc(Cc4ccccc4)[nH]3)c2)c1 [Example 129, 5-benzyl-N-(5-(2-methoxyethoxy)-2-methyl-[3,4′-bipyridin]-2′-yl)-4H-1,2,4-triazole-3-carboxamide] | 100 to 1000 |
| CC(C)(O)CCCOc1ccc(Cl)c(-c2ccnc(NC(=O)c3nnc(CC4CCCCC4)[nH]3)c2)c1 [Example 357, N-(4-(2-chloro-5-((4-hydroxy-4-methylpentyl)oxy)phenyl)pyridin-2-yl)-5-(cyclohexylmethyl)-4H-1,2,4-triazole-3-carboxamide] | ≤ 100 |
